# EP2695600A1, “Dermal cosmetic compositions having osmoprotecting activity” (Unifarco S.p.A., priority 2012, dated 2014)
# Columns and labels:
# [1] = test system: AQP3; experiment: Real time PCR, AQP3 gene expression in RHE; assay type: cell-based, Human; details: for AQP3 (RQ): cold stressed RHE
# Excerpt: (§1) An experimental model of epidermal dryness, induced by modified room humidity and temperature conditions, has been used to assess the efficacy of 3 cosmetic products characterized by the following compositions SOLUTION 1 Water + trehalose 1% SOLUTION 2 Water + ectoine 0,5% SOLUTION 3 Water + ectoine 0,5% + trehalose 1%.
# (§2) SkinEthic® Reconstructed Human Epidermis (RHE) of 0,5 cm^2 is a fully differentiated epidermis formed after 17 day of air-lift culture of NHK from skin biopsies in a chemically defined medium. The model reproduces epidermal morphology and it has been fully characterized. The good barrier function, batch reproducibility and low variability in terms of permeability for probe molecules have been described in the Literature compared to human ex-vivo models.
# (§3) For the three steps, ready to use reagents were used. The RNAqueous method is a rapid, phenol free, filter based RNA isolation system used to extract the total RNA from cellular samples. The High Capacity cDNA Reverse Transcription kit was used to synthetize cDNA from RNA. The instrument Applied Biosystems 7500 Fast Real Time PCR with fluorescent-based PCR chemistry, the TaqMan assay, was used to study gene expression of significant biomarkers. Gene expression is the process by which the inheritable information in a gene, such as the DNA sequence, is made into a functional gene product, such as protein or RNA. Relative quantification determines the change in the expression of a nucleic acid sequence in a test sample relative to the same sequence in a calibrator sample. Beta-actin was used as an endogenous control gene to normalize input amounts.
# (§4) Each replicate was assessed in triplicate. At the 2X TaqMan Fast Universal PCR Master Mix was added Taqman gene expression assay and cDNA (25 ng) for a total volume of 25 µL. The Thermal condition steps in the ABI PRISM 7500 Fast are: 95°C 20 sec; 40 cycles (95°C 3 sec +60°C 30 sec).
# (§5) Fluorescence data of the RT-PCR generated by the thermocycler ABI PRISM 7500 Fast, are collected by the internal software SDS 2.0.5 and the Raw Data (RQ study results) are printed and exported in Excel.
# (§6) Because each cycle in the PCR reaction corresponds to a 2-fold increase in PCR product, a difference of one in threshold cycle number represents a 2-fold difference in the expression of a particular gene compared to the calibrator sample and can be considered as significant. 95% of confidence level is used by the software to calculate the errors.
# (§7) The cold stress performed by 30' induction at -20°C corresponds to a block of water flux: the treatment has been done at this moment and followed by 16h and 48h recovery allowing to monitor the dynamic of the genomic response and to study product mechanism of action: the fig.3 described RHE's physiological response of saline solution treatment and glycerol compared to the RHE physiological response of the same treated with SOLUTIONS 1,2,3.
# [2] = test system: Reconstructed Human Epidermis (RHE); experiment: LDH quantification (membrane integrity / viability) in cold-stress epidermal dryness model; assay type: cell-based
# Excerpt: as §1, §2
# Immediately after arrival in the laboratory, the RHE were transferred to a 6-well plate previously filled with maintenance medium (1 mL/well) at room temperature and incubated at 37°C, 5% CO2, saturated humidity. The test has been started the day after the arrival.
# The cell membrane forms a functional barrier around the cell, and traffic into and out of the cell is highly regulated by transporters, receptors and secretion pathways. When cells are damaged, they become 'leaky' and this forms the basis for the second type of assay. Membrane integrity is determined by measuring lactate dehydrogenase (LDH) in the extracellular medium. This enzyme is normally present in the cytosol, and cannot be measured extracellularly unless cell damage has occurred. […] The culture supernatant is collected and incubated with the reaction mixture including the kit (20 min, room T°, in the dark). An increase in the amount of dead or plasma membrane-damaged cells results in an increase of the LDH enzyme activity in the culture media. This increase in the amount of enzyme activity in the supernatant directly correlates to the amount of formazan formed during a defined time period therefore, the amount of color formed in the assay is proportional to the number of lysed cells.
# The higher optical density has been quantified in the media of stressed RHE and used as 100 % higher citotoxicity value.
# [3] = test system: HSP1A1; experiment: Real time PCR, HSP1A1 (HSP 72) gene expression in RHE; assay type: cell-based, Human; details: for HSP 72 (RQ): cold stressed RHE, calibrator stressed saline =1 (Fig. 7)
# Excerpt: as §1, §2, §3, §4, §5, §6, §7
smiles,measurement,setting,value
"OCC(O)CO [Glycerin 5%, Glycerin]",AQP3 Gene expression (RQ),"[1]; applied after 30' stress induction, 48h recovery, calibrator CONTROL RHE CN=1 (Fig. 3)",reduced
same,AQP3 (RQ),"[1]; 16H recovery, calibrator RHE STRESSED SALINE =1","0,437"
same,AQP3 (RQ),"[1]; 48H recovery, calibrator RHE STRESSED SALINE =1 (Fig. 4), 2880 min","0,409"
same,AQP3 (RQ),"[1]; 48H recovery, calibrator RHE STRESSED SALINE =1 (Fig. 4), listed as Glycerol 5%",reduced
same,AQP3 Gene expression (RQ),"[1]; non stressed but treated RHE, standard conditions, 16h, calibrator CN 16h=1 (Fig. 1)",significantly reduced
same,AQP3 Gene expression (RQ),"[1]; non stressed but treated RHE, standard conditions, 48h, calibrator CN 48h=1 (Fig. 1)","1,694"
same,"citotoxicity (LDH release), verbal assessment","[2]; 16h and 48h, standard conditions (for Glycerin 5% also stressed conditions)",not citotoxic
same,% VIABILITY,"[2]; STANDARD conditions (without stress), 30 MIN + 16H","96,08%"
same,% VIABILITY,"[2]; STANDARD conditions (without stress), 30 MIN + 48H","63,14%"
same,% VIABILITY,"[2]; cold stressed RHE (30 MIN at -20°C), product applied, 16H recovery","80,70%"
same,% VIABILITY,"[2]; cold stressed RHE (30 MIN at -20°C), product applied, 48H recovery","61,11%"
same,HSP 72 (RQ),[3]; 16H recovery,down-regulation
same,HSP 72 (RQ),"[3]; 16H recovery, 960 min","0,139"
same,HSP 72 (RQ),[3]; 48H recovery,"0,437"
same,HSP1A1 Gene expression,"[3]; non stressed but treated RHE, standard condition, 16h, calibrator CN 16h=1 (Fig. 5)",significantly reduced
same,HSP1A1 (HSP 72) Gene expression,"[3]; not stressed RHE, 48h treatment, calibrator CN 48h=1 (Fig. 5)",over expression
same,HSP 72 expression,"[3]; stressed RHE, 16h recovery, calibrator positive stressed control (Fig. 6)",reduced
